These results are taken from patent US4097599A, “Triazoles” (Commonwealth Scientific and Industrial Research Organization, priority 1973, dated 1978).

In brackets after ≈: the same amount, converted by molar mass. Read-outs that look alike come from different tables or passages of the source. Bounds are passed on as bounds.

Test [1] relates to rat liver monoamine oxidase. Put plainly: Inhibition of rat liver monoamine oxidase. The format is biochemical. The settings on record: for Relative inhibition of rat liver monoamine oxidase: relative to I50 value of BTS 27271 = 100. The source says:
(§1) Other biochemical tests carried out with the compounds were the measurement of their effects on the uncoupling of oxidative phosphorylation and the inhibition of energy transfer in the mitochondrial respiration sequences. In the light of a known report on the action of certain acaricides as monoamine oxidase (MAO) inhibitors, the new structures were also examined in this test, and their activity compared to the reported MAO inhibition shown by the potent acaricide N-(2,4-dimethylphenyl)-N'-methyl formamidine (BTS 27271).
Purified intact rat liver mitochondria were disrupted by treating with triton X-100 (1% w/v) for 20 mins. at 0°-4°. The MAO activity was measured spectrophotometrically at 360 nm as described by Weissbach, H. et al. ^10. The activity of BTS 27271 was determined by this method and the enzyme inhibition for other compounds was expressed relative to its I50 value.

For test [2], the system named is Boophilus microplus larvae. Put plainly: Acaricide testing: toxicity to Boophilus microplus larvae. The settings on record: 7-14 day old larvae, packets, 24 hours. The format is in vivo, Boophilus microplus (cattle tick). As to the method: (§2) The new compounds were examined in several biological tests. The acaricidal activity was measured against the larvae of the Australian cattle tick (Boophilus microplus). The specificity of interference of the designed compounds with mitochondrial oxidative processes was examined by the differential inhibition of growth of Saccharomyces cerevisiae with ethanol or glucose as substrates.
The determinations of mortalities were carried out in packets on 7-14 day old larvae of the cattle tick Boophilus microplus using the method described by Stone^1. Mortalities were counted 24 hours after the application of the compounds. The activities of DDT and BTS 27271 were also determined.

The subject of test [3] is Tetranychus urticae. Description: Activity against the two-spotted spider mite on discs of dwarf bean leaf. The settings on record: read-out: LC50, Tetranychus urticae. The format is in vivo. As to the method:
Compounds of the invention were tested for their activity against the two-spotted spider mite, Tetranychus urticae. In this test, discs of dwarf bean leaf were treated with varying known amounts of the test compound. On each disc, 15 mites were placed and the sample kept under cover. Mortalities were determined after 24 hours and compared with […] controls.

For test [4], the system named is Saccharomyces cerevisiae. Description: Inhibition of the growth of Saccharomyces cerevisiae on two substrates. It is filed as cell-based, Saccharomyces cerevisiae strain L410. The conditions noted are these: 24 hours. As to the method: as §2
Saccharamyces cerevisiae, strain L410, was grown aerobically at 28° in a salts medium containing 1% Difco yeast extract and 0.5% bacteriological peptone as described by Wallace, P. G. et al.^2 with either ethanol (1% w/v) or glucose (5% w/v) as carbon and energy sources. Cells were innoculated at a concentration of 10 μg of dry weight per ml and grown for 24 hours. Growth was measured as described by Clark-Walker et al.^3, and compared with control incubations.

In test [5] the test system is yeast mitochondria. Description: Oxidative phosphorylation in yeast mitochondria (uncoupling, State 3 respiration). It is filed as biochemical, yeast (Saccharomyces cerevisiae).
Source text: as §1
Yeast mitochondria were prepared as described by Watson, K. et al.^4. The effects of anti-metabolites on oxidative phosphorylation were determined in a polarograph cell at 30° in the medium described by Haslam, J. M. et al.^5. Substrates were either succinate (4.0 mM) or ethanol (0.3M). Other additions, where indicated, were Sigma ADP and 2:4-dinitrophenol (DNP).
(§3) State 3 and state 4 respiration rates were determined by the method of Chance, B. et al.^9. Percentage uncoupling in the presence of antimetabolities was calculated from the equation [formula] Percentage inhibition of coupled respiration was calculated from the equation [formula] Relative uncoupling and n-octylguanidine like effects are compared as the concentrations required to give 50% effects (I50).

For test [6], the system named is oxidative phosphorylation in rat liver mitochondria. Put plainly: Oxidative phosphorylation in rat liver mitochondria (uncoupling, State 3 respiration). It is filed as biochemical. The conditions noted are these: for EC50: concentration for 50% effect, read-out: Uncoupling activity of oxidative phosphorylation in rat liver mitochondria, I50.
Source text: as §1
Rat liver mitochondria were prepared by the method described by Hogeboon^6 in a medium containing 0.25 M sucrose; 10 mM tris-HCl (pH 7.40); 0.5 mM EDTA and finally suspended in the same medium plus bovine-serum albumin (2 mg/ml). Oxidative phosphorylation was measured polarographically at 30°, as described by Estabrook, R. W. et al.^7. The incubation medium contained 0.25 M sucrose; 10 mM tris-HCl (pH 7.4); 5 mM K2 HPO4 (pH 7.4); 0.5 mM EDTA and bovine-serum albumin (2 mg/ml). DNP was added and control tests were carried out using n-octyl guanidine ^8 and either pyruvate or succinate as substrates.
as §3

[7] abbreviates: ethanol substrate, read-out: Inhibition of the growth of Saccharomyces cerevisiae, ethanol, I50.
Where [8] appears, read: glucose substrate, read-out: Inhibition of the growth of Saccharomyces cerevisiae, glucose, I50.

Take `COc1ccccc1-n1cnnc1C(F)(F)F` [Example 6, 4-(2-methoxyphenyl)-3-trifluoromethyl-1,2,4-triazole]: the “Relative inhibition of rat liver monoamine oxidase” value (“Relative inhibition” for short) in test [1] was determined as 5. Besides, in test [2], the “LC50, toxicity to Boophilus microplus larvae” value (from here on “LC50, toxicity”) came out at 0.38%.
`Clc1ccc(C(c2ccc(Cl)cc2)C(Cl)(Cl)Cl)cc1` [DDT, reference compound]: in test [2], the “LC50, toxicity” value is recorded as 0.78%. The LC50 in test [3] (24 h) is greater than 20000 µg/mL.
As for `Cc1nnc(C(F)(F)F)n1-c1ccccc1` [Example 11, 3-Methyl-4-phenyl-5-trifluoromethyl-1,2,4-triazole], the “Relative inhibition” value in test [1] stood at 2. In addition, the “LC50, toxicity” value in test [2] worked out at 0.50%.
In the case of `Cc1ccccc1-n1cnnc1C(F)(F)F` [Example 4, 4-(2-methylphenyl)-3-trifluoromethyl-1,2,4-triazole], the “Relative inhibition” value in test [1] came to 2.5. Moreover, the “LC50, toxicity” value in test [2] is given as 0.52%.
As to `FC(F)(F)c1ncn(-c2ccccc2)n1` [Example 13, 1-phenyl-3-trifluoromethyl-1,2,4-triazole], in test [1], the “Inhibition of rat liver monoamine oxidase (result in words)” value (“Inhibition … (result in words)” for short) is given as “potent inhibition” and the “Relative inhibition” value was found to be 400. In addition, in test [1] (times that determined for BTS 27271 in a similar test), the “Inhibition of rat liver monoamine oxidase compared with BTS 27271” value is recorded as “four times”. Further, in test [2], the “LC50, toxicity” value was found to be 2.75%.
Turning to `CCOc1ccc(-n2cnnc2C(F)(F)F)cc1` [Example 7, 4-(4-ethoxyphenyl)-3trifluoromethyl-1,2,4-triazole], in test [1], the “Relative inhibition” value came to 2.5. Moreover, the “LC50, toxicity” value in test [2] was found to be 0.61%. Moreover, the LC50 in test [3] (discs of dwarf bean leaf, 24 hours) is 1400 µg/mL (≈ 5.44 mM).
With `Cc1ccc(-n2cnnc2C(F)(F)F)c(C)c1` [Example 9, 4-(2,4-Dimethylphenyl)-3-trifluoromethyl-1,2,4-triazole], the “LC50, toxicity” value in test [2] turned out to be 1.55%.
On to `CC(C)(C)c1ccccc1-n1cnnc1C(F)(F)F` [Example 5, 4-(2-t-butylphenyl)-3-trifluoromethyl-1,2,4-triazole], for which the “Relative inhibition” value in test [1] is reported as 0. Besides, the IC50 came to 100 µM in test [4] (setting [7]) and 160 µM in test [5] (yeast mitochondria, read-out: Half-maximal effect on State 3 respiration by yeast mitochondria). The “LC50, toxicity” value in test [2] was determined as 2.16%.
For `FC(F)(F)c1n[nH]c(-c2ccc(Cl)cc2)n1` [20(d), 3(5)-(4-chlorophenyl)-5(3)-trifluoromethyl-1,2,4-triazole], in test [1], the “Inhibition … (result in words)” value is given as “potent inhibition” and the “Relative inhibition” value is on record as 27. In test [4] (setting [7]), the IC50 stood at 30 µM. For the same compound, the IC50 in test [4] (setting [8]) was 300 µM. In addition, the “LC50, toxicity” value in test [2] is given as 0.45%. Further, in test [6], the EC50 was determined as 12 µM and the “Uncoupling activity in rat liver mitochondrial preparations (result in words)” value is reported as “high uncoupling activity”. In test [5], the “Uncoupling activity in yeast mitochondrial preparations (result in words)” value is “high uncoupling activity”.
For the compound `FC(F)(F)c1nc[nH]n1` [Example 16, 3-trifluoromethyl-1,2,4-triazole], the “Relative inhibition” value in test [1] amounted to 0. In test [2], the “LC50, toxicity” value was 0.50%.
For `CN=CNc1ccc(C)cc1C` [BTS 27271, N-(2,4-dimethylphenyl)-N'-methyl formamidine, reference compound] the same measures were 100 and 0.2%.
In the case of `FC(F)(F)c1n[nH]c(-c2ccccc2)n1` [20(c), 3(5)-phenyl-5(3)-trifluoromethyl-1,2,4-triazole], the “Relative inhibition” value in test [1] is 0. Further, the IC50 in test [4] (setting [7]) was 300 µM; in test [4] (setting [8]) it was 1000 µM. Besides, the “LC50, toxicity” value in test [2] was 0.60%. In addition, in test [6], the EC50 worked out at 80 µM. Besides, in test [6], the “Uncoupling activity in rat liver mitochondrial preparations (result in words)” value was “high uncoupling activity”. In test [5], the “Uncoupling activity in yeast mitochondrial preparations (result in words)” value is given as “high uncoupling activity”.
As for `FC(F)(F)c1nncn1-c1ccc(Cl)cc1` [Example 3, 4-(4-chlorophenyl)-3-trifluoromethyl-1,2,4-triazole], the “Relative inhibition” value in test [1] turned out to be 2. In addition, the IC50 in test [4] (setting [7]) amounted to 2500 µM. The “LC50, toxicity” value in test [2] amounted to 0.60%.
Turning to `FC(F)(F)c1n[nH]c(-c2ccc(Cl)c(Cl)c2)n1` [20(e), 3(5)-(3,4-dichlorophenyl)-5(3)-trifluoromethyl-1,2,4-triazole], in test [1], the “Inhibition … (result in words)” value is recorded as “potent inhibition” and the “Relative inhibition” value was found to be 42. Besides, in test [4] (setting [7]), the IC50 is 10 µM. For the same compound, the IC50 in test [4] (setting [8]) came to 300 µM. Moreover, the “LC50, toxicity” value in test [2] came out at 0.38%. In test [6], the EC50 is 2.3 µM and the “Uncoupling activity in rat liver mitochondrial preparations (result in words)” value is listed as “high uncoupling activity”. Further, the “Uncoupling activity in yeast mitochondrial preparations (result in words)” value in test [5] is on record as “high uncoupling activity”.
On to `Cc1cc(Cl)ccc1-n1cnnc1C(F)(F)F` [Example 10, 4-(4-Chloro-2-methylphenyl)-3-trifluoromethyl-1,2,4-triazole], for which the “LC50, toxicity” value in test [2] worked out at 0.87%.
Take `CC(C)(C)c1ccc(-n2cnnc2C(F)(F)F)cc1` [Example 8, 4-(4-t-butylphenyl)-3-trifluoromethyl-1,2,4-triazole]: the “Relative inhibition” value in test [1] is given as 1. The “LC50, toxicity” value in test [2] is 1.8%.
For the compound `FC(F)(F)c1nncn1-c1ccccc1` [Example 1, 4-Phenyl-3-trifluoromethyl-1,2,4-triazole], the “Relative inhibition” value in test [1] was 0. The IC50 in test [4] (setting [7]) worked out at 2500 µM. Besides, the “LC50, toxicity” value in test [2] worked out at 0.62%.
On to `FC(F)(F)c1nnc(-c2ccc(Cl)cc2)n1-c1ccc(Cl)cc1` [Example 12, 3,4-bis(4-chlorophenyl)-5-trifluoromethyl-1,2,4-triazole], for which, in test [1], the “Inhibition … (result in words)” value is on record as “potent inhibition” and the “Relative inhibition” value is 200. Besides, in test [2], the “LC50, toxicity” value is listed as greater than 1%.
